Test results: US20150105252A1, “SUBSTITUTED PYRAZOLES AS HERBICIDES” (E I DU PONT DE NEMOURS AND COMPANY, priority 2013, published 2015)

Experiments:
[1] = system: nightshade; test: Test F preemergence; type: in vivo, Solanum ptycanthum
Excerpt: (§1) Seeds of plant species selected from corn (Zea mays), soybean (Glycine max), velvetleaf (Abutilon theophrasti), lambsquarters (Chenopodium album), wild poinsettia (Euphorbia heterophylla), pigweed, palmer (palmer pigweed, Amaranthus palmeri), common waterhemp (Amaranthus rudis), surinam grass (Brachiaria decumbens), large crabgrass (Digitaria sanguinalis), crabgrass, Brazil (Brazilian crabgrass, Digitaria horizontalis), fall panicum (Panicum dichotomiflorum), giant foxtail (Setaria faberii), green foxtail (Setaria viridis), goosegrass (Eleusine indica), johnsongrass (Sorghum halepense), common ragweed (Ambrosia elation), barnyardgrass (Echinochloa crus-galli), southern sandbur (Cenchrus echinatus), arrowleaf sida (Sida rhombifolia), Italian ryegrass (Lolium multiflorum), dayflower, VA (Virginia (VA) dayflower, Commelina virginica), field bindweed (Convolvulus arvensis), cocklebur (common cocklebur, Xanthium strumarium), morningglory (Ipomoea coccinea), nightshade (eastern black nightshade, Solanum ptycanthum), kochia (Kochia scoparia), yellow nutsedge (Cyperus esculentus), and hairy beggarticks (Bidens pilosa), were planted into a silt loam soil and treated preemergence with test chemicals formulated in a non-phytotoxic solvent mixture which included a surfactant.
(§2) At the same time, plants from these crop and weed species and also horseweed (Canada horseweed, Conyza canadensis), smartweed (ladysthumb smartweed, Polygonum persicaria), waterhemp_RES1, (ALS & Triazine resistant common waterhemp, Amaranthus rudis), and waterhemp_RES2, (ALS & HPPD resistant common waterhemp, Amaranthus rudis) were treated with postemergence applications of test chemicals formulated in the same manner. Plants ranged in height from 2 to 18 cm for postemergence treatments (1- to 4-leaf stage). Treated plants and controls were maintained in a greenhouse for 14 to 21 days, after which time all species were compared to controls and visually evaluated. Plant response ratings, summarized in Table F, are based on a scale of 0 to 100 where 0 is no effect and 100 is complete control. A dash (-) response means no test result.

[2] = system: wild poinsettia; test: Test F preemergence; type: in vivo, Euphorbia heterophylla
Summary of the method: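 Test chemicals in a non-phytotoxic solvent with surfactant were applied preemergence to seeds sown in silt loam, or postemergence to plants 2–18 cm tall (1- to 4-leaf stage). Plants were kept in a greenhouse for 14–21 days and then rated visually against controls on a 0 (no effect) to 100 (complete control) scale.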

[3] = system: large crabgrass; test: Test F preemergence; type: in vivo, Digitaria sanguinalis
Excerpt: as §1, §2

[4] = system: lambsquarters; test: Test D preemergence; type: in vivo, Chenopodium album; conditions: scale 0 to 100
Summary of the method: (§3)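 Whole-plant herbicidal activity; pre- and postemergence sprays. Soil: silt loam (pre); peat/vermiculite medium (post, 1–4 leaf). Assessment: 14–21 days, visual, 0 = no effect, 100 = complete control.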

[5] = system: pigweed; test: Test D postemergence; type: in vivo, Amaranthus retroflexus; conditions: scale 0 to 100
Excerpt: (§4) Seeds of plant species selected from bluegrass (annual bluegrass, Poa annua), blackgrass (Alopecurus myosuroides), canarygrass (littleseed canarygrass, Phalaris minor), chickweed (common chickweed, Stellaria media), galium (catchweed bedstraw, Galium aparine), bromegrass, downy (downy bromegrass, Bromus tectorum), field poppy (Papaver rhoeas), field violet (Viola arvensis), foxtail, green (green foxtail, Setaria viridis), deadnettle (henbit deadnettle, Lamium amplexicaule), ryegrass, Italian (Italian ryegrass, Lolium multiflorum), kochia (Kochia scoparia), lambsquarters (Chenopodium album), oilseed rape (Brassica napus), pigweed (redroot pigweed, Amaranthus retroflexus), chamomile (scentless chamomile, Matricaria inodora), speedwell (bird's-eye speedwell, Veronica persica), barley, spring (spring barley, Hordeum vulgare), wheat, spring (spring wheat, Triticum aestivum), buckwheat, wild (wild buckwheat, Polygonum convolvulus), mustard, wild (wild mustard, Sinapis arvensis), oat, wild (wild oat, Avena fatua), radish, wild (wild radish, Raphanus raphanistrum), windgrass (Apera spica-venti), Russian thistle (Salsola kali), barley, winter (winter barley, Hordeum vulgare), and wheat, winter (winter wheat, Triticum aestivum) were planted into a silt loam soil and treated preemergence with test chemicals formulated in a non-phytotoxic solvent mixture which included a surfactant.
(§5) At the same time, these species were planted in pots containing Redi-Earth® planting medium (Scotts Company, 14111 Scottslawn Road, Marysville, Ohio 43041) comprising spaghnum peat moss, vermiculite, wetting agent and starter nutrients and treated with postemergence applications of the test chemicals formulated in the same manner. Plants ranged in height from 2 to 18 cm (1- to 4-leaf stage). Treated plants and controls were maintained in a controlled growth environment for 14 to 21 days after which time all species were compared to controls and visually evaluated. Plant response ratings, summarized in Table D, are based on a scale of 0 to 100 where 0 is no effect and 100 is complete control. A dash (-) response means no test result.

[6] = system: southern sandbur; test: Test F preemergence; type: in vivo, Cenchrus echinatus
Excerpt: as §1, §2

[7] = system: field violet; test: Test D postemergence; type: in vivo, Viola arvensis; conditions: scale 0 to 100
Excerpt: as §4, §5

[8] = system: pigweed; test: Test D preemergence; type: in vivo, Amaranthus retroflexus; conditions: scale 0 to 100
Excerpt: as §4, §5

[9] = system: canarygrass; test: Test D preemergence; type: in vivo, Phalaris minor; conditions: scale 0 to 100
Summary of the method: as §3

[10] = system: deadnettle; test: Test D postemergence; type: in vivo, Lamium amplexicaule; conditions: scale 0 to 100
Excerpt: as §4, §5

[11] = system: chamomile; test: Test D postemergence; type: in vivo, Matricaria inodora; conditions: scale 0 to 100
Excerpt: as §4, §5

[12] = system: mustard, wild; test: Test D preemergence; type: in vivo, Sinapis arvensis; conditions: scale 0 to 100
Summary of the method: as §3

[13] = system: bluegrass; test: Test D postemergence; type: in vivo, Poa annua; conditions: scale 0 to 100
Summary of the method: as §3

[14] = system: soybean; test: Test F preemergence; type: in vivo, Glycine max
Excerpt: as §1, §2

[15] = Preemergence, 31 g ai/ha, scale 0 to 100
[16] = Preemergence, 62 g ai/ha, scale 0 to 100
[17] = Preemergence, 125 g ai/ha, scale 0 to 100
[18] = preemergence, 8 g ai/ha, scale 0 to 100, 100 is complete control
[19] = preemergence, 16 g ai/ha, scale 0 to 100, 100 is complete control

## CCc1cc(C(=O)NCC(F)(F)F)nn1Cc1ccnc(C(F)(F)F)c1 [Compound 78, 5-ethyl-N-(2,2,2-trifluoroethyl)-1-[[(2-trifluoromethyl)-4-pyridinyl]methyl]-1H-pyrazole-3-carboxamide]
[1]; [15]
  Plant response rating, Nightshade: 95
[1]; [16]
  Plant response rating, Nightshade: 98
[1]; [17]
  Plant response rating, Nightshade: 98
[1]; [18]
  Plant response rating, Nightshade: 0
[1]; [19]
  Plant response rating, Nightshade: 60
[2]; [15]
  Plant response rating, Wild Poinsettia: 50
[2]; [16]
  Plant response rating, Wild Poinsettia: 65
[2]; [17]
  Plant response rating, Wild Poinsettia: 98
[2]; [18]
  Plant response rating, Wild Poinsettia: 0
[2]; [19]
  Plant response rating, Wild Poinsettia: 0
[3]; [15]
  Plant response rating, Large Crabgrass: 100
[3]; [16]
  Plant response rating, Large Crabgrass: 100
[3]; [17]
  Plant response rating, Large Crabgrass: 100
[3]; [18]
  Plant response rating, Large Crabgrass: 75
[3]; [19]
  Plant response rating, Large Crabgrass: 98
[4]; 31 g ai/ha
  Plant response rating, Lambsquarters: 95
[4]; 62 g ai/ha
  Plant response rating, Lambsquarters: 100
[4]; 125 g ai/ha
  Plant response rating, Lambsquarters: 100
[4]; 250 g ai/ha
  Plant response rating, Lambsquarters: 100
[5]; Postemergence, 31 g ai/ha
  Pigweed plant response rating: 70
[5]; Postemergence, 125 g ai/ha
  Pigweed plant response rating: 80
[5]; Postemergence, 250 g ai/ha
  Pigweed plant response rating: 85
[5]; postemergence, 62 g ai/ha
  Pigweed plant response rating: 75
[6]; [15]
  Plant response rating, Southern Sandbur: 5
[6]; [16]
  Plant response rating, Southern Sandbur: 80
[6]; [17]
  Plant response rating, Southern Sandbur: 95
[6]; [18]
  Plant response rating, Southern Sandbur: 0
[6]; [19]
  Plant response rating, Southern Sandbur: 0
[7]; Postemergence, 31 g ai/ha
  Field Violet plant response rating: 30
[7]; Postemergence, 125 g ai/ha
  Field Violet plant response rating: 60
[7]; Postemergence, 250 g ai/ha
  Field Violet plant response rating: 65
[7]; postemergence, 62 g ai/ha
  Field Violet plant response rating: 40
[8]; 31 g ai/ha
  Plant response rating, Pigweed: 100
[8]; 62 g ai/ha
  Plant response rating, Pigweed: 100
[8]; 125 g ai/ha
  Plant response rating, Pigweed: 100
[8]; 250 g ai/ha
  Plant response rating, Pigweed: 100
[9]; 31 g ai/ha
  Plant response rating, Canarygrass: 15
[9]; 62 g ai/ha
  Plant response rating, Canarygrass: 30
[9]; 125 g ai/ha
  Plant response rating, Canarygrass: 90
[9]; 250 g ai/ha
  Plant response rating, Canarygrass: 100
[10]; Postemergence, 31 g ai/ha
  Deadnettle plant response rating: 15
[10]; Postemergence, 125 g ai/ha
  Deadnettle plant response rating: 35
[10]; Postemergence, 250 g ai/ha
  Deadnettle plant response rating: 60
[10]; postemergence, 62 g ai/ha
  Deadnettle plant response rating: 20
[11]; Postemergence, 31 g ai/ha
  Chamomile plant response rating: 30
[11]; Postemergence, 125 g ai/ha
  Chamomile plant response rating: 65
[11]; Postemergence, 250 g ai/ha
  Chamomile plant response rating: 75
[11]; postemergence, 62 g ai/ha
  Chamomile plant response rating: 50
[12]; 31 g ai/ha
  Plant response rating, Mustard, Wild: 100
[12]; 62 g ai/ha
  Plant response rating, Mustard, Wild: 100
[12]; 125 g ai/ha
  Plant response rating, Mustard, Wild: 100
[12]; 250 g ai/ha
  Plant response rating, Mustard, Wild: 100
[13]; Postemergence, 31 g ai/ha
  Bluegrass plant response rating: 10
[13]; Postemergence, 125 g ai/ha
  Bluegrass plant response rating: 15
[13]; Postemergence, 250 g ai/ha
  Bluegrass plant response rating: 30
[13]; postemergence, 62 g ai/ha
  Bluegrass plant response rating: 10
[14]; [15]
  Plant response rating, Soybean: 95
[14]; [16]
  Plant response rating, Soybean: 80
[14]; [17]
  Plant response rating, Soybean: 95
[14]; [18]
  Plant response rating, Soybean: 0
[14]; [19]
  Plant response rating, Soybean: 0

## CCOc1cc(C(=O)NC2CC2)nn1Cc1ccnc(C(F)(F)F)c1 [Compound 189]
[4]; 62 g ai/ha
  Plant response rating, Lambsquarters: 100
[4]; 125 g ai/ha
  Plant response rating, Lambsquarters: 100
[4]; 250 g ai/ha
  Plant response rating, Lambsquarters: 100
[5]; Postemergence, 31 g ai/ha
  Pigweed plant response rating: 70
[5]; Postemergence, 125 g ai/ha
  Pigweed plant response rating: 70
[5]; Postemergence, 250 g ai/ha
  Pigweed plant response rating: 75
[5]; postemergence, 62 g ai/ha
  Pigweed plant response rating: 70
[7]; Postemergence, 31 g ai/ha
  Field Violet plant response rating: 60
[7]; Postemergence, 125 g ai/ha
  Field Violet plant response rating: 100
[7]; Postemergence, 250 g ai/ha
  Field Violet plant response rating: 100
[7]; postemergence, 62 g ai/ha
  Field Violet plant response rating: 60
[8]; 62 g ai/ha
  Plant response rating, Pigweed: 95
[8]; 125 g ai/ha
  Plant response rating, Pigweed: 100
[8]; 250 g ai/ha
  Plant response rating, Pigweed: 100
[9]; 31 g ai/ha
  Plant response rating, Canarygrass: 10
[9]; 62 g ai/ha
  Plant response rating, Canarygrass: 50
[9]; 125 g ai/ha
  Plant response rating, Canarygrass: 85
[9]; 250 g ai/ha
  Plant response rating, Canarygrass: 100
[10]; Postemergence, 31 g ai/ha
  Deadnettle plant response rating: 45
[10]; Postemergence, 125 g ai/ha
  Deadnettle plant response rating: 55
[10]; Postemergence, 250 g ai/ha
  Deadnettle plant response rating: 75
[10]; postemergence, 62 g ai/ha
  Deadnettle plant response rating: 45
[11]; Postemergence, 31 g ai/ha
  Chamomile plant response rating: 55
[11]; Postemergence, 125 g ai/ha
  Chamomile plant response rating: 60
[11]; Postemergence, 250 g ai/ha
  Chamomile plant response rating: 65
[11]; postemergence, 62 g ai/ha
  Chamomile plant response rating: 55
[12]; 62 g ai/ha
  Plant response rating, Mustard, Wild: 100
[12]; 125 g ai/ha
  Plant response rating, Mustard, Wild: 100
[12]; 250 g ai/ha
  Plant response rating, Mustard, Wild: 100
[13]; Postemergence, 31 g ai/ha
  Bluegrass plant response rating: 15
[13]; Postemergence, 125 g ai/ha
  Bluegrass plant response rating: 15
[13]; Postemergence, 250 g ai/ha
  Bluegrass plant response rating: 30
[13]; postemergence, 62 g ai/ha
  Bluegrass plant response rating: 15
